Test results as given in US8017631B2, “Oxadiazole derivatives and their medical use” (Neurosearch A/S, priority 2005, dated 2011).

Assays:
[1] = target: T1, human nicotinic acetylcholine receptor subtype α4β2 (Homo sapiens, UniProt P17787+P43681); assay: Characterization of hα4β2 positive allosteric modulators using FLIPR; type: cell-based
T1 construct: expressed in transfected cells; host or cells: human HEK cells
Experimental: The ability is determined relative to a maximal nicotine response (normally 100 μM). The activity is determined as a standard assay using a fluorometric method in a Fluorescent Image Plate Reader (FLIPR) as described below in more detail.
Full concentration/response curves are generated and EC50 values are calculated based on peak values. EC50 values (Effective Concentration) represent the concentration of the test substance, at which the nicotine-induced EC20-30 response is positively modulated such that the size of the response equals 50% of a maximal nicotine control response. The maximal positively modulated response is determined relative to the reference (nicotine) response.

T1 sequence (P43681 29-627 limits assumed): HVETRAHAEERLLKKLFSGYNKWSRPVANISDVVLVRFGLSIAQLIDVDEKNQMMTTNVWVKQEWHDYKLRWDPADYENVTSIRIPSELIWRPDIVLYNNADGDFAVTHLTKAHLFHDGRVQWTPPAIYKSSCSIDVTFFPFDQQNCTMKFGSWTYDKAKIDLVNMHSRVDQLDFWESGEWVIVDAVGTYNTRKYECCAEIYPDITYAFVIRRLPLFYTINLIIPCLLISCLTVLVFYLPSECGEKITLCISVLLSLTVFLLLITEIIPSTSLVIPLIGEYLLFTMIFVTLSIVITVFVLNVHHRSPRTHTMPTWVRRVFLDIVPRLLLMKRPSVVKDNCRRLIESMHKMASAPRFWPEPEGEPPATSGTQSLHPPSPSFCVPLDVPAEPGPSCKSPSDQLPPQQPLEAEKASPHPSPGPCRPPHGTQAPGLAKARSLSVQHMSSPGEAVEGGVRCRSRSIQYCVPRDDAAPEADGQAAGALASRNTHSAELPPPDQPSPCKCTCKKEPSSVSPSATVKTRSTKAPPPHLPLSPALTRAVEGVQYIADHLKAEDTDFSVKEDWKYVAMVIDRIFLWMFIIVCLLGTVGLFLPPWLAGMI
T1 sequence (P17787 26-502): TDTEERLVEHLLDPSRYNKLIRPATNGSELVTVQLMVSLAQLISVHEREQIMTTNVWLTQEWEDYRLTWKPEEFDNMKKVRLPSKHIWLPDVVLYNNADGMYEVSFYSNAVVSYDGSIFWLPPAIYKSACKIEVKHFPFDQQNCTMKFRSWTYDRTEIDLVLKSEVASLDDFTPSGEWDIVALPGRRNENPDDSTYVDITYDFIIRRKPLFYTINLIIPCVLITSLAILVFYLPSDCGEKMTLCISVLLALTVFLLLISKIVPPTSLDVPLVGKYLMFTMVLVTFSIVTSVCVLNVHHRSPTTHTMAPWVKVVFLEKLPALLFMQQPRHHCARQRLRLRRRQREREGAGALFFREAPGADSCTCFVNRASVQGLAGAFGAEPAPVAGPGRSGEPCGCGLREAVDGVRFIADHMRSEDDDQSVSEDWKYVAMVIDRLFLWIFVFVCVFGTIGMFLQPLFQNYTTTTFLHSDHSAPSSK

In the case of `O=[N+]([O-])c1ccc(-c2nc(-c3cccnc3)no2)o1` [Compound 1, 3-(5-(5-Nitro-furan-2-yl)-[1,2,4]oxadiazol-3-yl)-pyridine], the “Max. Response rel. to Nicotine” value ([1]; maximal positively modulated response relative to maximal nicotine response (normally 100 μM), HEK cells expressing hα4β2) is reported as 97% and the EC50 ([1]; positive modulation of sub-maximal nicotine (EC20-30) response, human HEK cells expressing hα4β2, peak values) is reported as 6.8 µM.

`N#Cc1ccc(-c2nc(-c3cccnc3)no2)o1` [Compound 6.2, 5-(3-Pyridin-3-yl-[1,2,4]oxadiazol-5-yl)-furan-2-carbonitrile] showed a melting point of 141 to 144 °C.
